Assay results published in patent US11939352B2, “Potent aromatase inhibitors through fungal transformation of anti-cancer drug testolactone: an approach towards treatment of breast cancer” (priority 2021, dated 2024).

These compounds were tested against T1, human placental microsomal aromatase (Homo sapiens, UniProt P11511) (assay: Human placental aromatase inhibition assay).
T1 construct: was determined in a pool of human fresh placental microsomes in vitro; from tissue; host or cells: human placenta (pooled fresh microsomes)
T1 sequence (P11511 1-503): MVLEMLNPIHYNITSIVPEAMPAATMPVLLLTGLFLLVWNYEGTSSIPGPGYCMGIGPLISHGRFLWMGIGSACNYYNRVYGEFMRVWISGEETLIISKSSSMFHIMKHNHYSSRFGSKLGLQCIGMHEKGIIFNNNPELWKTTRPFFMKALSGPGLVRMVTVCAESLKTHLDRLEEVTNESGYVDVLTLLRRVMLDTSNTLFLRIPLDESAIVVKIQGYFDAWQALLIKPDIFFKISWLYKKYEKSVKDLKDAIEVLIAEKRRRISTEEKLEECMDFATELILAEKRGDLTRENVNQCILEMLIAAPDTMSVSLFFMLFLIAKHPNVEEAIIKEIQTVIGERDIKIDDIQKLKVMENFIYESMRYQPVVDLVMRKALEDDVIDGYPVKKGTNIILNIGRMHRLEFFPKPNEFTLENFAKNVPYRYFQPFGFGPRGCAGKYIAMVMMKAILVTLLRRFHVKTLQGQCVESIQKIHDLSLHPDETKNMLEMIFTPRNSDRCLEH
Format: biochemical
For `C[C@]12C=CC(=O)C=C1CC[C@@H]1[C@@H]2CC[C@]2(C)OC(=O)CC[C@@H]12` [Compound 1, 3-oxo-13,17-secoandrosta-1,4-dieno-17,13α-lactone, reference compound], the IC50 was 716 ± 31 nM.
With `C[C@]12CC[C@H]3[C@@H](CC[C@]45O[C@H]4[C@H](O)C=C[C@]35C)[C@@H]1CCC(=O)O2` [Compound 5, 4β,5β-epoxy-3α-hydroxy-13,17-secoandrosta-1-eno-17,13α-lactone] the IC50 was 820 ± 59 nM.
For `C[C@]12CC[C@H]3[C@@H](CC[C@]45O[C@H]4[C@@H](O)C=C[C@]35C)[C@@H]1CCC(=O)O2` [Compound 4, 4β,5β-epoxy-3β-hydroxy-13,17-secoandrosta-1-eno-17,13α-lactone], the IC50 was 10400 ± 500 nM.
For `C[C@]12C=CC(=O)C[C@H]1C[C@H](O)[C@@H]1[C@@H]2CC[C@]2(C)OC(=O)CC[C@@H]12` [Compound 2, 7β-hydroxy-3-oxo-13,17-seco-5β-androsta-1-eno-17,13α-lactone], the IC50 was 8.63 ± 0.4 nM.
With `C[C@]12CC[C@@H](O)C[C@H]1CC[C@@H]1[C@@H]2[C@@H](O)C[C@]2(C)OC(=O)CC[C@@H]12` [Compound 3, 3α,11β-dihydroxy-13,17-seco-5β-androsta-17,13α-lactone] the IC50 was 9.23 ± 1.3 nM.
